Reference: patent EP0184291B1, “Polyether antibiotic A80190” (ELI LILLY AND COMPANY, priority 1984, dated 1986)
Where a SMILES comes first, the peptide text is derived from it. Bridges are numbered along the chain shown (N, C = ends). [ ]: non-standard residue; d: D form. The star is where a group is joined. Ileψ(thiazoline)Cys = CC[C@H](C)[C@H](N)C1=N[C@H](C(=O)*)CS1; dOrn = NCCC[C@@H](N)C(=O)O

Assays:
A. macra = test: Resistance to antibiotics, sensitivity discs on seeded ISP No. 2 agar; type: cell-based
Method: (§1) Resistance to antibiotics was measured by padding antibiotic sensitivity discs onto the surface of seeded ISP No. 2 agar plates.
(§2) Table III lists the resistance of the strain to various antibiotics at the concentrations indicated and compares it to that of A. macra.

NRRL 15878 = test: as above; type: cell-based, Actinomadura oligospora
Method: as §1, §2

CC[C@H](C)[C@H](N)C1=N[C@H](C(=O)N[C@@H](CC(C)C)C(=O)N[C@H](CCC(=O)O)C(=O)N[C@H](C(=O)N[C@H]2CCCCNC(=O)[C@H](CC(N)=O)NC(=O)[C@@H](CC(=O)O)NC(=O)[C@H](Cc3cnc[nH]3)NC(=O)[C@@H](Cc3ccccc3)NC(=O)[C@H]([C@@H](C)CC)NC(=O)[C@@H](CCCN)NC2=O)[C@@H](C)CC)CS1 [Bacitracin] ({Ileψ(thiazoline)Cys}-L[dE]IK[dOrn]I[dF]H[dD]N; lactam 4-C)
Resistance to Antibiotics (A. macra; Concentration 10 units): -
Resistance to Antibiotics (NRRL 15878; Concentration 10 units): +

CC(=O)OCC1=C(C(=O)O)N2C(=O)[C@@H](NC(=O)Cc3cccs3)[C@H]2SC1 [Cephalothin]
Resistance to Antibiotics (A. macra; Concentration 30 µg): +

CC1(C)S[C@@H]2[C@H](NC(=O)Cc3ccccc3)C(=O)N2[C@H]1C(=O)O [Pencillin G]
Resistance to Antibiotics (A. macra; Concentration 10 units): +

CO[C@H]1/C=C/O[C@@]2(C)Oc3c(C)c(O)c4c(O)c(c(/C=N/N5CCN(C)CC5)c(O)c4c3C2=O)NC(=O)/C(C)=C\C=C\[C@H](C)[C@H](O)[C@@H](C)[C@@H](O)[C@@H](C)[C@H](OC(C)=O)[C@@H]1C [Rifampin]
Resistance to Antibiotics (A. macra; Concentration 5 µg): +

[H]/N=C(/N)N[C@H]1[C@H](O)[C@@H](O)[C@H](O[C@@H]2O[C@@H](C)[C@](O)(C=O)[C@H]2O[C@@H]2O[C@@H](CO)[C@H](O)[C@@H](O)[C@@H]2NC)[C@@H](N/C(N)=N\[H])[C@@H]1O [Streptomycin]
Resistance to Antibiotics (A. macra; Concentration 10 µg): +

CN(C)[C@@H]1C(O)=C(C(N)=O)C(=O)[C@@]2(O)C(O)=C3C(=O)c4c(O)cccc4[C@@](C)(O)[C@H]3C[C@@H]12 [Tetracycline]
Resistance to Antibiotics (A. macra; Concentration 30 µg): -

CN[C@H](CC(C)C)C(=O)N[C@H]1C(=O)N[C@@H](CC(N)=O)C(=O)N[C@H]2C(=O)N[C@H]3C(=O)N[C@H](C(=O)N[C@H](C(=O)O)c4cc(O)cc(O)c4-c4cc3ccc4O)[C@H](O)c3ccc(c(Cl)c3)Oc3cc2cc(c3O[C@@H]2O[C@H](CO)[C@@H](O)[C@H](O)[C@H]2O[C@H]2C[C@](C)(N)[C@H](O)[C@H](C)O2)Oc2ccc(cc2Cl)[C@H]1O [Vancomycin]
Resistance to Antibiotics (A. macra; Concentration 30 µg): -
Resistance to Antibiotics (NRRL 15878; Concentration 30 µg): -

Gentamicin
Resistance to Antibiotics (A. macra; Concentration 10 µg): -
Resistance to Antibiotics (NRRL 15878; Concentration 10 µg): -
